In publication PMC7932537, “Quantitative profiling of protease specificity” (PLoS Computational Biology, 2021):

Key:
MMP-2 [1] = experiment: Substrate phage display with NGS: relative probability (RP) of P3-P1' tetramer clusters; format: biochemical, human; conditions: MMP2;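 also: ratio of tetramer probability after protease selection to that in naive phage library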
MMP-9 = MMP-9 (Homo sapiens, UniProt P14780); experiment: K(obs) of individual phage substrates (set of 1369); format: biochemical; conditions: MMP9
MMP-2 [2] = molecular target: T1, MMP-2 (Homo sapiens, UniProt P08253); experiment: as above; format: biochemical; conditions: MMP2
T1 sequence (P08253 110-660): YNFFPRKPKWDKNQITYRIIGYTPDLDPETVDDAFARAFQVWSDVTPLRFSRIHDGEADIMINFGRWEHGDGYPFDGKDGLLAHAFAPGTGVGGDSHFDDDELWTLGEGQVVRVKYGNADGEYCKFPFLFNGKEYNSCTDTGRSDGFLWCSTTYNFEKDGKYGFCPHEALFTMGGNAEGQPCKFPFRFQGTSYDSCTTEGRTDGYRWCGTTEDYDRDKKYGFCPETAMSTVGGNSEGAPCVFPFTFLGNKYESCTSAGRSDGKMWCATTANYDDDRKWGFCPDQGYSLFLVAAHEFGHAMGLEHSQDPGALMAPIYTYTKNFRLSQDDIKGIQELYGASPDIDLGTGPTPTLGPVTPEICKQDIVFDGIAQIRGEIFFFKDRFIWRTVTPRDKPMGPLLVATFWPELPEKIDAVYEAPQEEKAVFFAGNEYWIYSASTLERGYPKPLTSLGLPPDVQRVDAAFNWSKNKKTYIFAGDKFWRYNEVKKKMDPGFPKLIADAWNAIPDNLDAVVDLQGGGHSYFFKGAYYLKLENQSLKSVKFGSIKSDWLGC

[3] = RP of the P3-P1' tetramer contained in the substrate (substrate phage display with NGS)
[4] = individual phage substrates, set of 1369 peptides, hyphen in sequence marks cleavage position
[5] = individual phage substrates, set of 1369 peptides, cleavage position marked by hyphen in sequence
[6] = RP of the P3-P1' tetramer contained in the substrate
[7] = individual phage substrate of the set of 1369 peptides, dash in the sequence marks the cleavage position
[8] = individual phage substrate of the set of 1369 peptides, cleavage position marked by '-'

Sequence of MMP-9 (P14780 94-707): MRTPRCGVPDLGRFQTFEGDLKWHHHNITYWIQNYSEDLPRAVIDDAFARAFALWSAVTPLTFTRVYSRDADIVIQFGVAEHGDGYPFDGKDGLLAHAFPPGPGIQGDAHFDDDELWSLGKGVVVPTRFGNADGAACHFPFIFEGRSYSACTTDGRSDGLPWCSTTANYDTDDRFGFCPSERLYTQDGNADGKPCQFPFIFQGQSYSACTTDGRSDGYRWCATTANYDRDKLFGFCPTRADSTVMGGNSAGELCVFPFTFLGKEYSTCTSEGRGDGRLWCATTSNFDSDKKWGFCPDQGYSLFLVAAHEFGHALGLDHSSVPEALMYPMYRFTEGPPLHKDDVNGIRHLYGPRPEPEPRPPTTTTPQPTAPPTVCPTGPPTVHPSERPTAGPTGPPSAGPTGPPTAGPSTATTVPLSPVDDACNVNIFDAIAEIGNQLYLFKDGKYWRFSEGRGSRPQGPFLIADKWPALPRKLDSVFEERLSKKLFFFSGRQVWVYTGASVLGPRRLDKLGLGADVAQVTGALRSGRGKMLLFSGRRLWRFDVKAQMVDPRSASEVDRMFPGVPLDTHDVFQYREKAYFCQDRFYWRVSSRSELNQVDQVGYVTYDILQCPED

Kobs (MMP-9; [4]) [M⁻¹ s⁻¹] | Kobs (MMP-2 [2]; [5]) [M⁻¹ s⁻¹] | Kobs (MMP-9; [7]) [M⁻¹ s⁻¹] | Kobs (MMP-2 [2]; [8]) [M⁻¹ s⁻¹] | Substance | relative probability (RP) (MMP-2 [1]; [3]) | relative probability (RP) (MMP-2 [1]; [6])
12792.1 | 12792.1 | – | – | GGPSM-LTASG | 33.0235 | –
– | – | 0 | 1154.21 | GGSGA-LRVRG | – | 13.4712
– | – | 690.17 | 2097.28 | GGSGH-LLGMS | – | 1.458
0 | 0 | – | – | GGSGM-LKLQP | 1.312 | –
0 | 0 | – | – | GGSGN-LTMGS | 12.7361 | –
1030.73 | 1196.62 | – | – | GGSGS-LVLRL | 7.225 | –
0 | 0 | – | – | GGSGS-LVNLL | 7.225 | –
27.918 | 1112.44 | – | – | GGVSF-LLTAS | 5.918 | –
– | – | 0 | 4082.43 | GGYAG-LRTAS | – | 20.9112
0 | 5269.78 | – | – | GGYAN-LTTAS | 27.7486 | –
1239.69 | 2916.17 | – | – | GHARS-LKTAS | 17.186 | –
– | – | 4763.33 | 3964.21 | GHAYH-LTASG | – | 15.3364
– | – | 386.839 | 2545.25 | GHVRH-LLTAS | – | 25.4239
– | – | 0 | 0 | GHYHH-LMTAS | – | 0
201.585 | 726.013 | – | – | GIAHQ-LKTAS | 4.1 | –
0 | 0 | – | – | GIFWH-LRTAS | 0 | –
3079.62 | 0 | – | – | GIPFF-MTTAS | 3.509 | –
– | – | 6131.32 | 6688.74 | GIPRP-VMTAS | – | 29.4989
– | – | 7015.91 | 1816.46 | GIPYH-LATAS | – | 27.2418
27.918 | 0 | – | – | GISFA-LTTAS | 0.5631 | –
0 | 0 | – | – | GISQS-LITAS | 5.003 | –
– | – | 323.705 | 4613.14 | GIVGM-LQTAS | – | 28.5913
836.403 | 1711.63 | – | – | GIVKH-LQTAS | 14.8595 | –
– | – | 3438.54 | 4922.1 | GIVRY-LQTAS | – | 18.3724

Kobs (MMP-9; [4]) [M⁻¹ s⁻¹] | Kobs (MMP-2 [2]; [5]) [M⁻¹ s⁻¹] | Kobs (MMP-9; [7]) [M⁻¹ s⁻¹] | Kobs (MMP-2 [2]; [8]) [M⁻¹ s⁻¹] | Substance | relative probability (RP) (MMP-2 [1]; [3]) | relative probability (RP) (MMP-2 [1]; [6])
84.609 | 10866.7 | – | – | GKLAS-LRTAS | 31.1996 | –
0 | 726.013 | – | – | GKLKH-LQTAS | 11.1441 | –
142.481 | 292.668 | – | – | GKMFH-LITAS | 0.052 | –
0 | 1239.69 | – | – | GKPAS-LDTAS | 36.4285 | –
0 | 0 | – | – | GKVEY-LVTAS | 5.301 | –
142.481 | 231.616 | – | – | GKVSE-LITAS | 24.0996 | –
2409.72 | 2916.17 | – | – | GLAWG-LYTAS | 17.7408 | –
231.616 | 355.093 | – | – | GLGLN-LTASG | 0.5789 | –
517.582 | 1711.63 | – | – | GLLLN-MTASG | 13.7728 | –
0 | 0 | – | – | GLPDF-LTASG | 1.02 | –
3964.21 | 2545.25 | – | – | GLPLN-WRTAS | 28.8158 | –
– | – | 10866.7 | 7386.83 | GLPMH-LTASG | – | 30.095
5667.28 | 12792.1 | – | – | GLPTA-LRTAS | 32.8941 | –
12792.1 | 12792.1 | – | – | GLPYA-LYTAS | 33.2554 | –
762.325 | 4205.91 | – | – | GMAQY-LTASG | 7.443 | –
912.511 | 2097.28 | – | – | GMARF-LSTAS | 8.577 | –
7815.03 | 8941.32 | – | – | GMAWG-LRTAS | 17.7408 | –
– | – | 12792.1 | 4335.13 | GMPRY-MTASG | – | 28.0367
6131.32 | 1513.13 | – | – | GMPWS-VTASG | 0.3793 | –
– | – | 2097.28 | 690.17 | GMVFS-IYTAS | – | 0.2237
– | – | 585.336 | 10866.7 | GMVQH-LITAS | – | 22.9738
– | – | 0 | 1196.62 | GNAIH-LQTAS | – | 13.4941
1870.4 | 2157.02 | – | – | GNPLP-QMTAS | 24.381 | –
– | – | 8941.32 | 1196.62 | GNPYK-LTASG | – | 15.5683

Kobs (MMP-9; [4]) [M⁻¹ s⁻¹] | Kobs (MMP-2 [2]; [5]) [M⁻¹ s⁻¹] | Kobs (MMP-9; [7]) [M⁻¹ s⁻¹] | Kobs (MMP-2 [2]; [8]) [M⁻¹ s⁻¹] | Substance | relative probability (RP) (MMP-2 [1]; [3]) | relative probability (RP) (MMP-2 [1]; [6])
– | – | 690.17 | 292.668 | GNSWG-LRTAS | – | 0.1389
1327.88 | 12792.1 | – | – | GNVAN-LTASG | 34.9662 | –
7386.83 | 12792.1 | – | – | GNVRN-LITAS | 29.2567 | –
– | – | 2476.66 | 12792.1 | GNVRS-LITAS | – | 12.3051
– | – | 12792.1 | 5269.78 | GPVYN-LRTAS | – | 19.1818
– | – | 1660.66 | 3253.29 | GQARG-LQTAS | – | 25.9476
– | – | 12792.1 | 12792.1 | GQPRG-LRTAS | – | 35.2511
– | – | 8941.32 | 9740.44 | GQPRS-WRTAS | – | 32.796
0 | 56.119 | – | – | GQQMS-LRTAS | 0.2763 | –
0 | 0 | – | – | GQVDY-LMTAS | 1.426 | –
1465.65 | 12792.1 | – | – | GRAAW-LQTAS | 28.6088 | –
– | – | 3079.62 | 1561.44 | GRARW-LMTAS | – | 19.0362
726.013 | 4470.66 | – | – | GRASH-LMTAS | 19.8208 | –
951.362 | 1816.46 | – | – | GRGAN-LKTAS | 13.1428 | –
1373.05 | 585.336 | – | – | GRIYE-LWTAS | 0.2382 | –
0 | 12792.1 | – | – | GRLAS-LTASG | 31.1996 | –
– | – | 0 | 5667.28 | GRLGN-LWTAS | – | 33.3542
– | – | 1925.41 | 5461.43 | GRLRN-LVTAS | – | 27.1336
– | – | 836.403 | 451.441 | GRMLH-LRTAS | – | 8.417
– | – | 12792.1 | 12792.1 | GRPAD-LRTAS | – | 30.0217
– | – | 12792.1 | 12792.1 | GRPRG-LTTAS | – | 35.2511
– | – | 10866.7 | 12792.1 | GRPRS-LTASG | – | 33.3704
